What was measured:
Assay type in all cases: in vivo
SYHT0H2 soybean plants = test: Field efficacy against glufosinate, SYHT0H2 soybean plants; settings: 900 g ai/ha glufosinate at V2/V3 stage and second treatment at V5-V6 stage, 8 locations in the United States
Experimental: (§1) SYHT0H2 soybean plants were tested for efficacy against glufosinate in 8 locations in the United States. The non-transgenic soybean line Jack was used as a control. Soybean plants, both SYHT0H2 and Jack, were treated with 900 g ai/ha of glufosinate at the V2/V3 stage and then a second treatment at the V5-V6 stage. They were then assessed for percentage of leaves showing injury at 4-8 days after treatment (DAT), 13-20 DAT, and 26-35 DAT.

[1] = tested on: non-transgenic soybean line Jack; test: Field efficacy against glufosinate, non-transgenic soybean line Jack; settings: 900 g ai/ha glufosinate at V2/V3 stage and second treatment at V5-V6 stage, 8 locations in the United States
Experimental: as §1

[2] = tested on: Event SYHT0H2 soybean plants; test: Field efficacy against mesotrione, event SYHT0H2 soybean plants; settings: 210 g ai/ha mesotrione at V2/V3 stage, 5 locations in the United States
Experimental: (§2) Event SYHT0H2 soybean plants were tested for efficacy against mesotrione in 5 locations in the United States. The non-transgenic soybean line Jack was used as a control. Soybean plants, both SYHT0H2 and Jack, were treated with 210 g ai/ha of mesotrione at the V2/V3 stage and then assessed for percentage of leaves showing injury at 4-7 days after treatment (DAT), 13-17 DAT, and 25-33 DAT.

[3] = tested on: non-transgenic soybean line Jack; test: Field efficacy against mesotrione, non-transgenic soybean line Jack; settings: 210 g ai/ha mesotrione at V2/V3 stage, 5 locations in the United States
Experimental: as §2

[4] = tested on: Event SYHT0H2 soybean plants; test: Herbicide tolerance performance of transgenic soybean transformants; settings: event SYHT0H2 from a population of about 90 transformants
Source text: After plants became established in the soil and new growth appeared (˜1-2 weeks), plants were sampled and tested for the presence of desired transgene by TAQMAN® analysis using appropriate probes for the HPPD genes, or promoters (for example prCMP). Positive plants were transplanted into 4″ square pots containing Fafard #3 soil. Sierra 17-6-12 slow release fertilizer was incorporated into the soil at the recommended rate. The plants were then relocated into a standard greenhouse to acclimatize (˜1 week). The environmental conditions were: 27° C. day; 21° C. night; 14 hour photoperiod (with supplemental light); ambient humidity. After acclimatizing (˜1 week), the plants were sampled and tested in detail for the presence and copy number of inserted transgenes. Transgenic soybean plants were grown to maturity for T1 seed production. T1 plants were grown up, and after TAQMAN® analysis, homozygous plants were grown for seed production. Transgenic seeds and progeny plants were used to further evaluate their herbicide tolerance performance and molecular characteristics.

Compound	% Injury (percentage of leaves showing injury) (SYHT0H2 soybean plants; 4-8 DAT)	% Injury (percentage of leaves showing injury) (SYHT0H2 soybean plants; 13-20 DAT)	% Injury (percentage of leaves showing injury) (SYHT0H2 soybean plants; 26-35 DAT)	% Injury (percentage of leaves showing injury) ([1]; 4-8 DAT)	% Injury (percentage of leaves showing injury) ([1]; 13-20 DAT)	% Injury (percentage of leaves showing injury) ([1]; 26-35 DAT)	% Injury (percentage of leaves showing injury) ([2]; 4-7 DAT)	% Injury (percentage of leaves showing injury) ([2]; 13-17 DAT)	% Injury (percentage of leaves showing injury) ([2]; 25-33 DAT)	% Injury (percentage of leaves showing injury) ([3]; 4-7 DAT)	% Injury (percentage of leaves showing injury) ([3]; 13-17 DAT)	% Injury (percentage of leaves showing injury) ([3]; 25-33 DAT)	herbicide tolerance of event SYHT0H2 [4]
2-amino-4-methylphosphinobutyric acid [glufosinate]	9%	5%	0%	100%	100%	100%							
CS(=O)(=O)c1ccc(C(=O)C2C(=O)CCCC2=O)c([N+](=O)[O-])c1 [mesotrione]							13.2%	4.7%	0%	46.5%	81%	62.4%	high level of mesotrione tolerance

From patent publication US10184134B2, “Soybean event SYHT0H2 and compositions and methods for detection thereof” (Syngenta Participations AG, priority 2010, dated 2019)
